The target of assay [1] is T1, human A1 AR (Homo sapiens, UniProt P30542).
T1 construct: expressed in transfected cells; membranes
T1 sequence (P30542 1-326): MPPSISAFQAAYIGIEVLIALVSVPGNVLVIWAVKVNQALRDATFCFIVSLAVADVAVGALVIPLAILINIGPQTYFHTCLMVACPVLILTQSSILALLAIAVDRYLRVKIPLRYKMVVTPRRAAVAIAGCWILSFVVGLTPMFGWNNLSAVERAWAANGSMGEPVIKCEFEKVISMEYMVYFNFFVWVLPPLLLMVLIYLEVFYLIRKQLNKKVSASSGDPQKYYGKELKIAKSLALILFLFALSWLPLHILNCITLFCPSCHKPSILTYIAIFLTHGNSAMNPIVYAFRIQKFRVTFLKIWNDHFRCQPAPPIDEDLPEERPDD
Briefly: Radioligand competition binding with 125I-ABA, membranes of CHO K1 cells stably expressing the receptor. The settings on record: Ki derived from IC50, class symbols. In general terms: Loss of bound radioactivity is the signal in a displacement assay; it reports binding, not function.

The target of assay [2] is T2, human A3 AR (Homo sapiens, UniProt P0DMS8).
T2 construct: expressed in transfected cells; membranes
T2 sequence (P0DMS8 1-318): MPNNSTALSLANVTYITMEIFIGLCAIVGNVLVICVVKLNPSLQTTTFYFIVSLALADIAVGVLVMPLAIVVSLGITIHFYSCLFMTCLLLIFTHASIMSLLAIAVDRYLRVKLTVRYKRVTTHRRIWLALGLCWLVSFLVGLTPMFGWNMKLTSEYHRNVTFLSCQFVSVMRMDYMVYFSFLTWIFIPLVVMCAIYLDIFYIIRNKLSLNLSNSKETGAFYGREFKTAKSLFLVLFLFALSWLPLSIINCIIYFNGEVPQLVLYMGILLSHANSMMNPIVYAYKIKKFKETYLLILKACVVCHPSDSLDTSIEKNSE
Briefly: Radioligand competition binding with 125I-ABA, membranes of HEK 293 cells stably expressing the receptor. Particulars: Ki derived from IC50, class symbols. A digest of the protocol: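 Triplicate binding with 25 μg membrane protein and 0.5-1 nM agonist radioligand in HE buffer with 1 U/mL adenosine deaminase and 5 mM MgCl2, ±50 μM GTPγS, 3 h at room temperature, then filtration. Nonspecific binding with 50 μM NECA; Ki from IC50 corrected for radioligand and competitor depletion.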

The target in assay [3] is T3, recombinant human A2A receptors (Homo sapiens, UniProt P29274).
T3 construct: expressed in transfected cells; host or cells: Sf9 insect cells infected with virus; membranes
Briefly: Radioligand competition binding with 125I-APE or 125I-ZM241385, Sf9 cell membranes. The settings on record: 125I-APE or 125I-ZM241385, Sf9 membranes; class symbols. In outline:
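Membranes (5 μg for A2A; 25 μg for A1) incubated with radioligand at room temperature, 3 h for agonists or 2 h for antagonists, in HE buffer with 1 U/mL adenosine deaminase and 5 mM MgCl2, ± 50 μM GTPγS. Assays ended by filtration; nonspecific binding defined with 50 μM NECA.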

The test system of assay [4] is Purified human neutrophils. Briefly: Luminol enhanced chemiluminescence (neutrophil oxidative activity), fMLP stimulated. The format is cell-based. Particulars: Homo sapiens, Neutrophil; read-out: Functional.

Structures are written as SMILES.

T3 sequence (P29274 whole entry): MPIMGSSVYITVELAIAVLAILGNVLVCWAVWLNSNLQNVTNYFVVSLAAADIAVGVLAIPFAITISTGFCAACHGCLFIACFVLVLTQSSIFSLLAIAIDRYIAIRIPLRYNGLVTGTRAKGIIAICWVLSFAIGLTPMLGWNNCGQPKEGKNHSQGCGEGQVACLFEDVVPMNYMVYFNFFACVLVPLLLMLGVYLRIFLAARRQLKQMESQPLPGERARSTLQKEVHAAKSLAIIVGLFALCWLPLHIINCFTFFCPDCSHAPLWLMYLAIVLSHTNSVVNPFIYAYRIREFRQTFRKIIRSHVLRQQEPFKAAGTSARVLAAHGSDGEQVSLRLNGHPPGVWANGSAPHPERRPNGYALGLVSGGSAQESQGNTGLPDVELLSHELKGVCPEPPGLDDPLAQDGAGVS

What is called Ki is the dissociation constant of the complex between target and ligand, obtained from inhibition or displacement. Consider `CCNC(=O)[C@H]1O[C@@H](n2cnc3c(N)nc(C#CCC4CCN(C(=O)OCc5ccccc5)CC4)nc32)[C@@H](O)C1O` (stereo partly shown) [Compound 32, N-Ethyl 2-{3-[1-(benzyloxycarbonyl)-4-piperidinyl]-1-propyn-1-yl}adenosine-5′-uronamide, reference compound], for which the Ki in assay [1] is over 100 nM; in assay [2], under 100 nM; in assay [3], under 1 nM. Besides, the EC50 in assay [4] is under 10 nM.

As to `CCNC(=O)[C@H]1O[C@@H](n2cnc3c(N)nc(C#CCC4CCN(C(=O)Oc5ccc(N)cc5)CC4)nc32)[C@@H](O)C1O` (stereo partly shown) [Compound 34, N-Ethyl 2-{3-[1-(4-aminophenoxycarbonyl)-4-piperidinyl]-1-propyn-1-yl}adenosine-5′-uronamide], the Ki in assay [1] is under 100 nM; in assay [2], under 100 nM; in assay [3], under 10 nM. Further, in assay [4], the EC50 is under 1 nM.

`Nc1nc(C#CCC2CCN(C(=O)Oc3ccc(Cl)c(Cl)c3)CC2)nc2c1ncn2[C@@H]1O[C@H](C(=O)NC2CC2)C(O)[C@@H]1O` (stereo partly shown) [Compound 51, N-Cyclopropyl 2-{3-[1-(3,4-chlorophenoxycarbonyl)-4-piperidinyl]-1-propyn-1-yl}adenosine-5′-uronamide]: the Ki was under 100 nM in assay [1], under 100 nM in assay [2] and under 1 nM in assay [3]. The EC50 in assay [4] is under 1 nM.

For `Nc1nc(C#CCC2CCN(C(=O)Nc3ccc(Cl)cc3)CC2)nc2c1ncn2[C@@H]1O[C@H](CO)C(O)[C@@H]1O` (stereo partly shown) [Compound 45], the values for the Ki in assay [1], in assay [2] and in assay [3] were under 100 nM, under 100 nM and under 10 nM, respectively. For the same compound, the EC50 in assay [4] was over 100 nM.

On to `CCNC(=O)[C@H]1O[C@@H](n2cnc3c(N)nc(C#CCC4CCN(C(=O)Oc5ccccc5Cl)CC4)nc32)[C@@H](O)C1O` (stereo partly shown) [Compound 31, N-Ethyl 2-{3-[1-(2-chlorophenyloxycarbonyl)-4-piperidinyl]-1-propyn-1-yl}adenosine-5′-uronamide], for which the Ki was under 100 nM in assay [1], under 10 nM in assay [2] and under 1 nM in assay [3]. Also, the EC50 in assay [4] is under 10 nM.

Regarding `CCNC(=O)[C@H]1O[C@@H](n2cnc3c(N)nc(C#CCC4CCN(C(=O)Oc5ccc(C(=O)OC)cc5)CC4)nc32)[C@@H](O)C1O` (stereo partly shown) [Compound 25, N-Ethyl 2-{3-[1-(4-methoxycarboxyphenyloxycarbonyl)-4-piperidinyl]-1-propyn-1-yl}adenosine-5′-uronamide], the Ki in assay [1] was over 100 nM; in assay [2], under 100 nM; in assay [3], under 10 nM. Besides, the EC50 in assay [4] is under 10 nM.

Take `CCNC(=O)[C@H]1O[C@@H](n2cnc3c(N)nc(C#CCC4CCN(C(=O)Oc5ccc(Cl)cc5)CC4)nc32)[C@@H](O)C1O` (stereo partly shown) [Compound 26, N-Ethyl 2-{3-[1-(4-chlorophenyloxycarbonyl)-4-piperidinyl]-1-propyn-1-yl}adenosine-5′-uronamide]: the values for the Ki in assay [1], in assay [2] and in assay [3] were under 100 nM, under 10 nM and under 1 nM, respectively. Also, the EC50 in assay [4] is under 1 nM.

(Values after US7888329B2, “Substituted aryl piperidinylalkynyladenosines as A2AR agonists” (PGxHealth, LLC, priority 2006, dated 2011).)
